The text below walks through data of patent US20190090476A1, “MICROEMULSIONS FOR AGRICULTURAL USE” (Florida Chemical Company, Inc., priority 2017, published 2019).

The conditions of data set [1]: cited from earlier work.
A short description of data set [2]: HSP distance Ra and relative energy difference RED of solvents versus plant wax HSP values. The text has this:
The HSP distance between two molecules, conventionally called Ra, is the measure of how alike they are. The smaller the Ra, the more likely they are to be compatible. A quantity called the relative energy difference (RED) may be used to measure relative distance:
where Ro is the radius of the sphere that contains all good solvents. […] Generally, a value of Ro=7.1 is typical. For RED<1, the molecules are alike and will dissolve. For RED=1, the system will partially dissolve. For RED>1, the system will not dissolve.
A solvent with similar HSP values to these, or a solvent for which Ra (calculated as shown above) is small, or for which RED is less than or equal to 1, would be expected to partially solvate and soften plant leaf cuticle waxes.

Regarding `Cc1cccc(O)c1` [m-Cresol], the δD in data set [1] (energy from dispersion forces) was 18.5 MPa^1/2. Further, the δH in data set [1] (energy from hydrogen bonds) was 13.7 MPa^1/2. In addition, the δP in data set [1] (energy from polar intermolecular force) is reported as 6.5 MPa^1/2. Further, in data set [2] (HSP distance to lower plant wax HSP values (δD=16.0-16.3, δP 0-2.5, δH=0-3.1)), the “Ra 2” value amounted to 12.2. For the same molecule, the “Ra 1” value in data set [2] (HSP distance to upper plant wax HSP values (δD=16.0-16.3, δP 0-2.5, δH=0-3.1)) worked out at 16.0. For the same molecule, the “RED 1” value in data set [2] (RED=Ra 1/Ro, Ro=7.1) was 2.25. For the same molecule, the “RED 2” value in data set [2] (RED=Ra 2/Ro, Ro=7.1) was 1.71.
